Where two headings read alike, the source gives them in different places.

Data on six molecules can be found in patent US8193224B2, “Medicinal composition for prevention or treatment of parasitic protozoan infection” (Fujifilm Corporation, priority 2004, dated 2012).

Common to all, as to format: cell-based
The nature of data set [1]: Growth inhibition test of mouse FM3A cells. The method, then:
F28-7 strain which is a wild-type of the mouse breast cancer derived FM3A cell was used. As for a medium, immobilized fetal bovine serum was added to a ES medium at 2%, which medium was cultured under CO2 concentration 5%, at 37° C. Doubling time of FM3A cells under that condition was approximately 12 hours. Pre-culture was conducted and cells which have entered the logarithmic growth phase were diluted in a medium to be 5×10^4 cells/mL Those prepared when measuring malarial activity were used as a sample. Sample solution was added in an amount of to 10 μL in a 24-well culture plate (the final concentration was 1×10^−4 to 1×10^−5, by adding media etc). Compounds were taken by duplicates, and wells added with 10 μL DMSO were prepared at the same time as a control. Next, cultured cell suspension previously prepared was added in an amount of 990 to 995 μL, pipetted quietly and suspended in a medium similarly. After culturing 48 hours, the cells were counted with a cell controller (CC-108, Toa. Medical Electrics) for each well. Growth rate was calculated with the following formula, to obtain a 50% growth inhibition rate (EC50). Growth rate (%)={(C−A)/(B−A)}×100 A: primary cell count B: cell count of the control, 2 days after C: cell count of wells added with a sample, 2 days after
Cell growth inhibiting activity was calculated from cell count of wells added with a sample, and cell count of the control.

The subject of data set [2] is Plasmodium falciparum FCR-3 strain. As to the kind of experiment: Drug sensitive-Plasmodium falciparum growth inhibition screening test. Particulars: for EC50: Plasmodium falciparum, FCR3, Erythrocyte, read-out: 50% growth inhibition concentration P. falciparum FCR; for Selective toxicity: chemotherapy index = EC50 mouse FM3A cells / EC50 drug sensitive P. falciparum. As to the method: In the present example, protozoa of Plasmodium falciparum FCR-3 strain was used. RPMI-1640 medium sterilized with a filter was used in the experiment. pH was adjusted to 7.4, and human serum was added to be 10%. Malarial parasites were cultured under 5% O2 concentration, 5% CO2 concentration, 90% N2 concentration, and at a temperature of 36.5° C.
Cultured malarial parasite infected-erythrocytes were collected by centrifugation, and washed in a medium containing serum. Non-infected erythrocytes were added so that the primary infection rate is 0.3%. Hematocrit level at that time was 3%. The compounds of the present invention to be used in the test and the positive target drugs (chloroquine, quinine) were dissolved in dimethylsulfoxide (DMSO) to make a test solution of a predetermined concentration. The test solution was added in an amount of 5 to 10 μl in a 24-well culture plate. To the control, DMSO was added in an amount of 10 μL/well. Test solutions were taken by duplicates. Subsequently, Plasmodium falciparum culture solution previously prepared to a predetermined concentration was added, pipetted quietly, and suspended in the medium similarly. Culture plate was cultured for 72 hours in a CO2—O2—N2(5%, 5%, 90%) incubator. Thin layer smear preparations were prepared for each well, and after performing Diff-Quick staining, the preparations were measured with a microscope (oil immersion, 1,000×), and malarial parasite infection rates of the test solution added-group and of the control group were calculated. Growth inhibition rate was calculated with the following formula from the malarial parasite infection rate obtained in the above, to obtain a 50% growth inhibition concentration (EC50). Growth inhibition rate (%)={1−(b−a)/(c−a)}×100 a: early infection rate b: infection rate when test solution was added c: infection rate of the control

Data set [3] deals with Plasmodium falciparum K1 strain. Briefly: Chloroquine resistant-Plasmodium falciparum growth inhibition screening test. The method, then: In the present example, protozoa of Plasmodium falciparum K1 strain was used. RPMI-1640 medium sterilized with a filter to which human serum was added to be 5%, was used in the experiment. Malarial parasites were cultured under 3% O2 concentration, 4% Co2 concentration, 93% N2 concentration, and at a temperature of 37° C.
The compounds of the present invention to be used in the present test and the positive target drug (chloroquine) were dissolved in DMSO to make a test solution of a predetermined concentration. Cultured malarial parasite infected-erythrocytes were collected by centrifugation, and diluted with non-infected erythrocyte so that the early infection rate is 0.15%. Hematocrit level at that time was 2.5%. 200 μL of malaria infected solution was added to wells of a 96-well culture plate, and adjusted by adding a test solution containing drug of a predetermined concentration or a drug-free DMSO. Test solutions were taken by duplicates. After culturing for 48 hours at 37° C., 0.5 μCi radioactive tritium (3H)-labeled hypoxanthine was added to each well. After further culturing for 24 hours under the same conditions, it was collected on a glass fiber filter and washed with distilled water. Radiation intensity was measured with a beta plate liquid scintillation counter (Wallac), and malarial parasite infection rates of the test solution added group and of the control group were calculated. Growth inhibition rate was calculated with the following formula based on the malarial parasite infection rate obtained in the above, to obtain a 50% growth inhibition concentration (EC50). Growth inhibition rate (%)={1−(b−a)/(c−a)}×100 a: early infection rate b: infection rate when test solution was added c: infection rate of the control

Data set [4] concerns Trypanosoma brucei rhodensiense (STIB 900 strain). As to the kind of experiment: African trypanosome protozoa growth inhibition screening test. Conditions: Trypanosoma brucei, STIB900; STIB 900 strain, blood stream form, 72 hours, Alamar Blue; read-out: 50% growth inhibiting concentration Trypanosoma brucei rhod. As to the method: In the present example, protozoa of Trypanosoma brucei rhodensiense (STIB 900 strain), a trypamastigote living in blood stream, was used. The medium used in the experiment was a MEM medium which was sterilized with a filter and supplemented with 25 mM N-2-hydroxyethylpiperazine-2-ethansulfonic acid […]), 1 g/L glucose, 1% MEM non-essential amino acid, 0.2 mM 2-mercaptoethanol, 2 mM sodium pyruvate, 0.1 mM hypoxanthine, and 15% heat-treated horse serum. The protozoa was cultured in an atmosphere of CO2 concentration 5%, at a temperature of 37° C.
The compounds of the present invention to be used in the present test and the positive target drug (melarsoprol) were dissolved in DMSO to make a test solution of a predetermined concentration. A medium containing 8×10^3 protozoa, and a test solution containing a drug of a predetermined concentration or a drug-free DMSO were added to wells of a 96-well culture plate, and subsequently, medium was added so that the amount in each well becomes 100 μL. Test solutions were taken by duplicates. After culturing the culture plate for 72 hours in an incubator, growth inhibition activity was tested. Test was conducted as follows. 10 μL of Alamar Blue aqueous solution was added to each well, and the resultant was further cultured for 2 hours. Next, the culture plate was placed on a fluorescent micro-plate reader (Spectramax Gemeni XS; US Molecular Device), radiated at an excited wavelength of 536 nm. Fluorescent intensity was measured at 588 nm, to calculate the trypanosome protozoa infected rate of the test solution added-group, and of the control group. From the protozoan infection rate obtained in the above, growth inhibition rate was calculated with the following formula, to obtain a 50% growth inhibition concentration (EC50). Growth inhibition rate (%)={1−(b−a)/(c−a)}×100 a: early infection rate b: infection rate when test solution was added c: infection rate of the control
Background: The colour change of resazurin is a common sign of viable cells or microbes.

Data set [5] shares this test system. Described as above. Conditions: chemotherapy index = EC50 rat L6 cells / EC50 African trypanosome protozoa.
The test system of data set [6] is Leishmania donovani (MHOM/ET/67/L82 strain). Briefly: Leishmania protozoa growth inhibition screening test. Conditions: chemotherapy index = EC50 rat L6 cells / EC50 leishmania protozoa.
For data set [7] the test system is unchanged. The data set is described as above. Particulars: Leishmania donovani; MHOM/ET/67/L82 strain amastigote, pH 5.4, 72 hours, Alamar Blue; read-out: 50% growth inhibition concentration Leishmania donovani. The method, then: In the present example, Leishmania donovani (MHOM/ET/67/L82 strain) was used. Protozoa was subcultured in Syrian Golden hamster, from which an amastigote was obtained. In the experiment, SM medium supplemented with 10% heat-treated bovine fetal serum was used, which was adjusted to pH 5.4, and cultured in an atmosphere of 5% CO2 concentration, at 37° C.
The compounds of the present invention to be used in the present test and the positive target drug (miltefosine) were dissolved in DMSO to make a test solution of a predetermined concentration. After adding a medium containing a predetermined number of protozoa to wells of a 96-well culture plate and pre-treating, concentration of the amastigote was measured with CASY cell analysis system (Scharfe, Germany). Then, test solution containing a drug of a predetermined concentration or a drug-free DMSO was added. Test solutions were taken by duplicates. After culturing the culture plate for 72 hours in an incubator, growth inhibition activity was tested. Test was conducted as follows.
10 μL of Alamar Blue aqueous solution was added to each well, and the resultant was further cultured for 2 hours. Next, the culture plate was placed on a fluorescent micro-plate reader (Spectramax Gemeni XS; US Molecular Device), radiated at an excited wavelength of 536 nm. Fluorescent intensity was measured at 588 nm, and infection rate of leishmania protozoa of the test solution added-group and control was calculated, to obtain a 50% growth inhibition concentration (EC50). Growth inhibition rate (%)={1−(b−a)/(c−a)}×100 a: early infection rate b: infection rate when test solution was added c: infection rate of the control

The nature of data set [8]: Growth inhibition test of rat L6 cells. Conditions: L6 cells (rat skeletal myoblast), Alamar Blue (Table 2), read-out: 50% growth inhibition concentration Cytotoxicity L6. The method, then:
Rat derived-L6 cells (rat skeletal myoblast cell) were used. As medium, RPMI1640 medium was supplemented so that L-glutamin (200 mM) is 1%, and fetal bovine serum 10%, and the medium was cultured under CO2 concentration 5%, at 37° C. The compounds of the present invention and the target drugs to be used in the test were dissolved in DMSO, to make a test solution of a predetermined concentration. Pre-culture was conducted and medium containing cells which have entered the logarithmic growth phase was taken to wells of a 96-well culture plate. Then, a test solution containing drug of a predetermined concentration or a drug-free DMSO was added. Test solutions were taken by duplicates. Culture plate was cultured for 72 hours in an incubator, to test the growth inhibition activity. Test was conducted as follows.
10 μl of Alamar Blue aqueous solution was added to each well, and the resultant was further cultured for 2 hours. Next, the culture plate was placed on a fluorescent micro-plate reader (Spectramax Gemeni XS; US Molecular Device), radiated at an excited wavelength of 536 nm. Fluorescent intensity was measured at 588 nm, and residual rate of L6 cells of the test solution added group, and that of the control was calculated. Based on the cell residual rate obtained in the above, growth inhibition rate to L6 cells was calculated, to obtain a 50% growth inhibition concentration (EC50). Growth inhibition rate (%)={(C−A)/(B−A)}×100 A: primary cell count B: cell count of control, 3 days after C: cell count of wells added with a sample, 3 days after […]

The mark [9] stands for this setting: drug sensitive FCR-3 strain, infected erythrocytes, cultured 72 hours, microscopy.

With `CCN1C=CC=C/C1=C\C=c1/s/c(=C\c2cc[n+](CC)c3ccccc23)n(CC)c1=O` [A-11], the EC50 at 48 h in data set [1] (mouse) is more than 14000 nM. Moreover, the EC50 in data set [2] (setting [9]) stood at 600 nM. In addition, the Selective toxicity in data set [2] is more than 23.

Molecule `CCn1c(=O)/c(=C/C=C2\Sc3ccc4ccccc4c3N2C)s/c1=C\c1sc2ccc3ccccc3c2[n+]1CC` [A-2] came in with an EC50 at 48 h in data set [1] (mouse) of 800 nM. Besides, in data set [2] (setting [9]), the EC50 came to 100 nM. In data set [2], this molecule displayed a Selective toxicity of 8.

`C=C[C@H]1C[N@@]2CC[C@H]1C[C@H]2[C@H](O)c1ccnc2ccc(OC)cc12` [quinine, reference compound]: in data set [1] (mouse), the EC50 at 48 h came to 100000 nM. For the same molecule, the EC50 in data set [2] (setting [9]) was found to be 110 nM. The molecule also gave a Selective toxicity in data set [2] of 910.

Regarding `CCN1CCS/C1=C\C=c1/s/c(=C\c2sc3c4ccccc4ccc3[n+]2CCO)n(CC)c1=O` [A-17], the EC50 in data set [3] (Plasmodium falciparum, 72 h, chloroquine resistant K1 strain, 3H-hypoxanthine, 48 + 24 hours, read-out: 50% growth inhibition concentration P. falciparum K1) is 38 nM; in data set [4], 93 nM; in data set [7], 11 nM. Moreover, the Selective toxicity in data set [3] (chemotherapy index = EC50 rat L6 cells / EC50 chloroquine resistant P. falciparum) came to 1400; in data set [5] it was 570; in data set [6], 4800. The EC50 at 72 h in data set [8] was found to be 53000 nM.

In turn, `CCn1c(=O)/c(=C/C=C2\Sc3ccc4ccccc4c3N2C)s/c1=C\c1scc(C)[n+]1CC` [A-3] had an EC50 at 48 h in data set [1] (mouse) of 1500 nM. Also, the EC50 in data set [2] (setting [9]) stood at 75 nM. In data set [2], this molecule came in with a Selective toxicity of 20.

On to `CCN(CC)CCCC(C)Nc1ccnc2cc(Cl)ccc12` (stereo not shown) [chloroquine, reference compound], for which, in data set [1] (mouse FM3A cells, 48 hours, cell count (Table 1), read-out: 50% growth inhibition concentration Cytotoxicity FM3A), the EC50 at 48 h was 32000 nM. Also, the EC50 in data set [2] (72 h) turned out to be 18 nM. In data set [2], this molecule came in with a Selective toxicity of 1780.
